Source: US20230141603A1, “BENZODIAZEPINE DERIVATIVES AS GABA A GAMMA1 PAM” (Hoffmann-La Roche Inc., priority 2021, published 2023)

Target: T1, h-GABAA α2β2γ1 (Homo sapiens, UniProt P47869+Q8N1C3)
T1 sequence (P47869 29-451): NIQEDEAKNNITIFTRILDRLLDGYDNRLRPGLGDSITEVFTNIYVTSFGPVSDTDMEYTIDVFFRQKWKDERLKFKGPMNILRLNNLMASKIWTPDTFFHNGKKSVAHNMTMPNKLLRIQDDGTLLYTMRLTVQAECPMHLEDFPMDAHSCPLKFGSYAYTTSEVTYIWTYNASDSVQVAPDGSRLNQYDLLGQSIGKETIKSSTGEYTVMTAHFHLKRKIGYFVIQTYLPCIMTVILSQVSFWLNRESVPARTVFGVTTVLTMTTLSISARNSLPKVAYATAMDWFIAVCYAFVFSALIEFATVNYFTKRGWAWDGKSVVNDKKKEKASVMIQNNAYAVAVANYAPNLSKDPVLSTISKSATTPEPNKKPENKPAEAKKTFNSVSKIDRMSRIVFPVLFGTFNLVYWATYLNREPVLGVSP
T1 sequence (P47870 25-512 partner limits assumed): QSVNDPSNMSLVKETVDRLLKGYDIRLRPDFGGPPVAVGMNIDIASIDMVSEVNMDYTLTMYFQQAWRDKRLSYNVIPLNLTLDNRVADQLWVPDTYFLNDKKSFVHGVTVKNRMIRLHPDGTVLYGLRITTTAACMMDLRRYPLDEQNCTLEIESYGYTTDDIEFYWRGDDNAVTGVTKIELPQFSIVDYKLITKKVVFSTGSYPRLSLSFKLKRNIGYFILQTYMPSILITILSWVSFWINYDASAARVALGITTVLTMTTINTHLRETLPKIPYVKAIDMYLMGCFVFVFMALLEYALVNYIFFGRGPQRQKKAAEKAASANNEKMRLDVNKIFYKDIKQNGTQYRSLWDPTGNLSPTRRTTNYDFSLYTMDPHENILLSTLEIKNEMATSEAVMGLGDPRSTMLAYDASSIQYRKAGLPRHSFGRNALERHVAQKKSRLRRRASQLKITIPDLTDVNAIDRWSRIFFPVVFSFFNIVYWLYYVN
T1 sequence (Q8N1C3 36-465): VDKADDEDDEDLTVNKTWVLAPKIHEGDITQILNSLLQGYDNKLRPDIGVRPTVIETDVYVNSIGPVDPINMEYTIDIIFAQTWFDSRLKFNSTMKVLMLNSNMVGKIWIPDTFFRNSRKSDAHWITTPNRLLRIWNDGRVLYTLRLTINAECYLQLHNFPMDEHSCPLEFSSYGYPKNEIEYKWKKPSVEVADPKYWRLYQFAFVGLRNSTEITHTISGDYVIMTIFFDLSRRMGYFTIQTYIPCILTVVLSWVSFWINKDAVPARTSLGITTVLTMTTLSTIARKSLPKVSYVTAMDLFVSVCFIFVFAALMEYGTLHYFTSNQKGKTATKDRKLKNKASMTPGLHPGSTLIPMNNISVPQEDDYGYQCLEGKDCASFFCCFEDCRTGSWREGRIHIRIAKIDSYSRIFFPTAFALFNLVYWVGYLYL
Assay: Two-electrode voltage clamp electrophysiology in Xenopus oocytes, modulation of GABA EC20 current
Type: cell-based
Design: host or cells: Xenopus laevis oocytes, RNA micro-injection
Settings: for Efficacy (GABA)% / Fold increase h-GABA-A α2β2γ1 oocyte @ 30-fold Ki: Table 2; for Efficacy (GABA)%: % modulation of GABA EC20 = 100*(Fold increase−1), compound at approx. 30-fold Ki; for Fold increase h-GABA-A α2β2γ1 oocyte @ 30-fold Ki: compound at approx. 30-fold its Ki α2β2γ1, GABA EC20, Xenopus oocytes
Description: Xenopus laevis oocytes at maturation stages V-VJ were used for the expression of cloned mRNA encoding GABAA receptor subunits. Oocytes ready for RNA micro-injection were bought from Ecocyte, Castrop-Rauxel, Germany and stored in modified Barth's medium (composition in mM: NaCl 88, KCl 1, NaHCO3 2.4, HEPES 10, MgSO4 0.82, CaNO3 0.33, CaCl2 0.33, pH=7.5) at 20° C. until the experiment.
Oocytes were plated in 96-well plates for microinjection using the Roboinject automated instrument (MultiChannelSystems, Reutlingen, Germany). Approximately 50 nL of an aqueous solution containing the RNA transcripts for the subunits of the desired GABAA receptor subtype was injected into each oocyte. […] Oocytes were kept in modified Barth's medium (composition in mM: NaCl 88, KCl 1, NaHCO3 […], HEPES 10, MgSO4 0.82, CaNO3 0.33, CaCl2 0.33, pH=7.5) at 20° C. until the experiment.
Electrophysiological experiments were performed using the Roboocyte instrument (MultiChannelSystems, Reutlingen, Germany) on days 3 to 5 after the micro-injection of mRNA. During the experiment the oocytes were constantly superfused by a solution containing (in mM) NaCl 90, KCl 1, HEPES 5, MgCl2 1, CaCl2 1 (pH 7.4). Oocytes were impaled by two glass microelectrodes (resistance: 0.5-0.8 MΩ) which were filled with a solution containing KCl 1M+K-acetate 1.5 M and voltage-clamped to −80 mV. The recordings were performed at room temperature using the Roboocyte two-electrode voltage clamp system (Multichannelsystem). After an initial equilibration period of 1.5 min GABA was added for 1.5 min at a concentration evoking approximately 20% of a maximal current response (EC20). After another rest interval of 2.5 min GABA was again added evoking a response of similar amplitude and shape. […] Current traces were recorded at a digitization rate of 10 Hz during and shortly before and after the GABA application.
Each compound and concentration was tested on at least 3 oocytes. Different oocytes were used for different compound concentrations.
For the analysis, the digitized current traces of the first and second GABA response were superimposed and, if necessary, rescaled to equal maximal amplitudes. The ratio between the two responses during the time interval of test compound application was calculated point by point. The extremum of the resulting “ratio trace” was taken as the efficacy (“Fold increase”) of the compound expressed as “% modulation of GABA EC20” (100*(Fold increase−1)).

Structure (SMILES)	Efficacy (GABA)%	Fold increase h-GABA-A α2β2γ1 oocyte @ 30-fold Ki	potentiation of the GABA-induced current (α2β2γ1 GABAA receptor subtype expressing oocytes, reference PAMs)
Clc1cccnc1C1=NCc2nnc(-c3ccncn3)n2-c2ccc(Br)c(Cl)c21 [Example 44, 8-bromo-7-chloro-6-(3-chloro-2-pyridyl)-1-pyrimidin-4-yl-4H-[1,2,4]triazolo[4,3-a][1,4]benzodiazepine]	62%	1.62	
Cc1nnc2n1-c1ccc(C(F)(F)F)c(Cl)c1C(c1ncccc1F)=NC2 [Example 78, 7-chloro-6-(3-fluoro-2-pyridyl)-1-methyl-8-(trifluoromethyl)-4H-[1,2,4]triazolo[4,3-a][1,4]benzodiazepine]	103%	2.03	
Fc1ccccc1C1=NCc2nnc(-c3ccncn3)n2-c2ccc(Cl)c(Cl)c21 [Example 18, 7,8-dichloro-6-(2-fluorophenyl)-1-pyrimidin-4-yl-4H-[1,2,4]triazolo[4,3-a][1,4]benzodiazepine]	70%	1.70	
O=c1[nH]nc2n1-c1ccc(Cl)c(Cl)c1C(c1c(F)cccc1F)=NC2 [Example 9, 7,8-dichloro-6-(2,6-difluorophenyl)-2,4-dihydro-[1,2,4]triazolo[4,3-a][1,4]benzodiazepin-1-one]	72%	1.72	
Cc1nnc2n1-c1ccc(C(C)(F)F)c(Cl)c1C(c1c(F)cccc1F)=NC2 [Example 22, 7-chloro-8-(1,1-difluoroethyl)-6-(2,6-difluorophenyl)-1-methyl-4H-[1,2,4]triazolo[4,3-a][1,4]benzodiazepine]	86%	1.86	
Fc1cccnc1C1=NCc2nnc(C3CC3)n2-c2ccc(Br)c(Cl)c21 [Example 77, 8-bromo-7-chloro-1-cyclopropyl-6-(3-fluoro-2-pyridyl)-4H-[1,2,4]triazolo[4,3-a][1,4]benzodiazepine]	66%	1.66	
COc1nnc2n1-c1ccc(Cl)c(Cl)c1C(c1c(F)cccc1F)=NC2 [Example 90, 7,8-dichloro-6-(2,6-difluorophenyl)-1-methoxy-4H-[1,2,4]triazolo[4,3-a][1,4]benzodiazepine]	65%	1.65	
Cc1nnc2n1-c1ccc(Br)c(Cl)c1C(c1c(F)cccc1F)=NC2 [Example 1, 8-bromo-7-chloro-6-(2,6-difluorophenyl)-1-methyl-4H-[1,2,4]triazolo[4,3-a][1,4]benzodiazepine]	77%	1.77	
Fc1cccc(F)c1C1=NCc2nnc(-c3cccnn3)n2-c2ccc(Br)c(Cl)c21 [Example 104, 8-bromo-7-chloro-6-(2,6-difluorophenyl)-1-pyridazin-3-yl-4H-[1,2,4]triazolo[4,3-a][1,4]benzodiazepine]	94%	1.94	
Fc1ccccc1C1=NCc2nnc(C3CC3)n2-c2ccc(Br)c(Cl)c21 [Example 2, 8-bromo-7-chloro-1-cyclopropyl-6-(2-fluorophenyl)-4H-[1,2,4]triazolo[4,3-a][1,4]benzodiazepine]	84%	1.84	
Cc1ncc2n1-c1ccc(Cl)cc1C(c1ccccc1F)=NC2 [Midazolam, reference compound]			~60%
Cc1ccc2c(c1Cl)C(c1c(F)cccc1F)=NCc1nnc(C)n1-2 [Example 20, 7-chloro-6-(2,6-difluorophenyl)-1,8-dimethyl-4H-[1,2,4]triazolo[4,3-a][1,4]benzodiazepine]	57%	1.57	
Fc1cccnc1C1=NCc2nncn2-c2ccc(Cl)c(Cl)c21 [Example 60, 7,8-dichloro-6-(3-fluoro-2-pyridyl)-4H-[1,2,4]triazolo[4,3-a][1,4]benzodiazepine]	132%	2.32	
Fc1cccc(F)c1C1=NCc2nncn2-c2ccc(I)c(Cl)c21 [Example 34, 7-chloro-6-(2,6-difluorophenyl)-8-iodo-4H-[1,2,4]triazolo[4,3-a][1,4]benzodiazepine]	81%	1.81	
Fc1ccccc1C1=NCc2nnc(-c3cccnn3)n2-c2ccc(Br)c(Cl)c21 [Example 3, 8-bromo-7-chloro-6-(2-fluorophenyl)-1-pyridazin-3-yl-4H-[1,2,4]triazolo[4,3-a][1,4]benzodiazepine]	113%	2.13	
Cc1nnc2n1-c1ccc(Br)c(Cl)c1C(c1c(F)cccc1Cl)=NC2 [Example 50, 8-bromo-7-chloro-6-(2-chloro-6-fluoro-phenyl)-1-methyl-4H-[1,2,4]triazolo[4,3-a][1,4]benzodiazepine]	54%	1.54	
Cn1cc(-c2nnc3n2-c2ccc(Cl)c(Cl)c2C(c2ncccc2F)=NC3)cn1 [Example 58, 7,8-dichloro-6-(3-fluoro-2-pyridyl)-1-(1-methylpyrazol-4-yl)-4H-[1,2,4]triazolo[4,3-a][1,4]benzodiazepine]	67%	1.67	
Fc1cccc(F)c1C1=NCc2nncn2-c2ccc(C(F)(F)F)c(Cl)c21 [Example 37, 7-chloro-6-(2,6-difluorophenyl)-8-(trifluoromethyl)-4H-[1,2,4]triazolo[4,3-a][1,4]benzodiazepine]	67%	1.67	
Fc1cccc(F)c1C1=NCc2nncn2-c2ccc(C(F)F)c(Cl)c21 [Example 23, 7-chloro-8-(difluoromethyl)-6-(2,6-difluorophenyl)-4H-[1,2,4]triazolo[4,3-a][1,4]benzodiazepine]	61%	1.61	
